Measured values from US12134622B1, “2-benzo-[3,4-b]pyridine-[b,g]indeno[1,2;3,4]fluoreno-[1,2-d]oxonine-5,11,16,21-tetraone as an antimicrobial compound” (KING FAISAL UNIVERSITY, priority 2023, dated 2024).

Columns and labels:
Escherichia coli = experiment: Antimicrobial screening, agar dilution method; format: cell-based; conditions: after 10, 20, 40 and 60 minutes at all dilutions 1:100, 1:200, 1:400, 1:800
Experimental: (§1) The antibacterial properties of the synthesized compound 2-benzo-[3,4-b]pyridine-[b,g]indeno[1′,2′:3,4]fluoreno-[1,2-d]oxonine-5,11,16,21-tetraone were studied by the method of agar dilution. Test solutions of each compound was prepared in concentration of 1% using dimethylformamide as a solvent then they are diluted in physiological solution to obtain the final experimental dilutions 1:100, 1:200, 1:400, 1:800. The effect of these substances are compared with furacillin in a controllable study. The testing microbes used were gram positive bacteria Staphylococcus aureus, gram negative bacteria Pseudomonas aeruginosa and Escherichia coli and Candida albicans fungus. The experiments used for this survey were meat-pentonlu agar (EPA) for cultivation of bacteria and Saburo environment for the fungus. Each experiment used 1 mL of test solution on each plate […]. Two drops of emulsified with microbes feel were added. All experimental samples were taken from the agar after 10, 20, 40, 60 minutes in the environment on the basis of Patrk planted. The bacteria were cultivated at a temperature of 37° C. for 1 day and the mushroom was kept in a thermostat for 2 hours at a temperature of 28° C. Then results were checked.

Pseudomonas aeruginosa = experiment: Antimicrobial screening, agar dilution method; format: cell-based; conditions: after 10, 20, 40 and 60 minutes at all dilutions 1:100, 1:200, 1:400, 1:800
Experimental: as §1

Candida albicans = experiment: Antimicrobial screening, agar dilution method; format: cell-based; conditions: after 10, 20, 40 and 60 minutes at all dilutions 1:100, 1:200, 1:400, 1:800
Experimental: as §1

Staphylococcus aureus = experiment: Antimicrobial screening, agar dilution method; format: cell-based; conditions: after 10, 20, 40 and 60 minutes at all dilutions 1:100, 1:200, 1:400, 1:800
Experimental: as §1

- melting point: 270 to 271 °C
Structure (SMILES): O=C1Oc2ncccc2-c2c(c3c4ccccc4c(=O)c3c3c2c(=O)c2ccccc23)C(=O)c2ccccc21 [2-benzo-[3,4-b]pyridine-[b,g]indeno[1′,2′:3,4]fluoreno-[1,2-d]oxonine-5,11,16,21-tetraone]
- inhibition activity (Escherichia coli): highest inhibition activity
- inhibition activity (Pseudomonas aeruginosa): highest inhibition activity
- inhibition activity (Candida albicans): highest inhibition activity
- inhibition activity (Staphylococcus aureus): highest inhibition activity
